This assay concerns the target T1, MLLT1 (Homo sapiens, UniProt Q03111).
T1 construct: host or cells: MV4-11
T1 sequence (Q03111 1-559): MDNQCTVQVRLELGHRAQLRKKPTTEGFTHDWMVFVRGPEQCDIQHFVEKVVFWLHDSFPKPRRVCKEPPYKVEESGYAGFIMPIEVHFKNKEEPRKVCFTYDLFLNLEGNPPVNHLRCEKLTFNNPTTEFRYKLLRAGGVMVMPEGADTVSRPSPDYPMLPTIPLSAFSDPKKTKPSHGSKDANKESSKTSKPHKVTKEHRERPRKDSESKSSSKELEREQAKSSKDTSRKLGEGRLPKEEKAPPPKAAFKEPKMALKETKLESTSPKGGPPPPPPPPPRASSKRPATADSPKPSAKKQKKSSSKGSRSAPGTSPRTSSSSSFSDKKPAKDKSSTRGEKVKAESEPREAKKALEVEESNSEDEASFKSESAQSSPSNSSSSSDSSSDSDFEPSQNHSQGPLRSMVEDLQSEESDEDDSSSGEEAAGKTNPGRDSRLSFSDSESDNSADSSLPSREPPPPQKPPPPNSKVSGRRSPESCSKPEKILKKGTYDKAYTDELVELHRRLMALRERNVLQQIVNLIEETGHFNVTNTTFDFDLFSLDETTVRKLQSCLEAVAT
Kind of assay: MLLT1 degradation assay in MV4-11 cells (JESS chemiluminescent detection), three concentrations, 24 h. The class given is cell-based. Particulars: with respect to DMSO control. The procedure, abridged: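 MV4-11 cells treated 24 h at 37° C, 5% CO2 with 1000, 100 and 10 nM compound (0.1% DMSO final). MLLT1 quantified by automated capillary chemiluminescent immunodetection; band peak area expressed as % degradation relative to DMSO control.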

Each structure is given as a SMILES string.

Here are results for eleven molecules from patent publication US20260191968A1, “PROTAC DEGRADERS OF MLLT1 AND/OR MLLT3” (DARK BLUE THERAPEUTICS LTD, priority 2024, published 2026).

For the molecule `CN1CCC[C@@H]1c1cc2cnc(NC(=O)c3ccc(N4CCC(OC5CCN(c6ccc7c(c6)CN(C6CCC(=O)NC6=O)C7=O)CC5)CC4)nc3)cc2[nH]1` (stereo partly drawn) [Example 139, 6-(4-((1-(2-(2,6-dioxopiperidin-3-yl)-1-oxoisoindolin-5-yl)piperidin-4-yl)oxy)piperidin-1-yl)-N-(2-((R)-1-methylpyrrolidin-2-yl)-1H-pyrrolo[3,2-c]pyridin-6-yl)nicotinamide], the “MLLT1% Degradation @ 0.01 μM” value is “B (Category B: 50% ≤ B < 75% degradation)”, the “MLLT1% Degradation @ 0.1 μM” value is reported as “B (Category B: 50% ≤ B < 75% degradation)” and the “MLLT1% Degradation @ 1 μM” value is on record as “B (Category B: 50% ≤ B < 75% degradation)”.

On to `CN1CCC[C@@H]1c1[nH]c2cc(NC(=O)c3ccc(N4CCN(CC#Cc5cccc6c5CN(C5CCC(=O)NC5=O)C6=O)CC4)nc3)ncc2c1Cl` (stereo partly drawn) [Example 72, N-(3-chloro-2-((R)-1-methylpyrrolidin-2-yl)-1H-pyrrolo[3,2-c]pyridin-6-yl)-6-(4-(3-(2-(2,6-dioxopiperidin-3-yl)-1-oxoisoindolin-4-yl)prop-2-yn-1-yl)piperazin-1-yl)nicotinamide], for which the “MLLT1% Degradation @ 0.01 μM” value is “A (Category A: A ≥ 75% degradation)”, the “MLLT1% Degradation @ 0.1 μM” value is “A (Category A: A ≥ 75% degradation)” and the “MLLT1% Degradation @ 1 μM” value is “C (Category C: 25% ≤ C < 50% degradation)”.

Regarding `CN1CCC[C@@H]1c1cc2cnc(NC(=O)c3ccc(OCCC4CCN(c5cccc6c5C(=O)N(C5CCC(=O)NC5=O)C6=O)CC4)nc3)cc2[nH]1` (stereo partly drawn) [Example 179, 6-(2-(1-(2-(2,6-dioxopiperidin-3-yl)-1,3-dioxoisoindolin-4-yl)piperidin-4-yl)ethoxy)-N-(2-((R)-1-methylpyrrolidin-2-yl)-1H-pyrrolo[3,2-c]pyridin-6-yl)nicotinamide], the “MLLT1% Degradation @ 0.01 μM” value is given as “B (Category B: 50% ≤ B < 75% degradation)”, the “MLLT1% Degradation @ 0.1 μM” value is listed as “B (Category B: 50% ≤ B < 75% degradation)” and the “MLLT1% Degradation @ 1 μM” value is given as “B (Category B: 50% ≤ B < 75% degradation)”.

Turning to `CN1CCC[C@@H]1c1cc2cnc(NC(=O)c3ccc(CCCC#Cc4cccc(C(=O)N[C@H]5CCC(=O)NC5=O)c4F)cc3)cc2[nH]1` [Example 219, N—((S)-2,6-dioxopiperidin-3-yl)-2-fluoro-3-(5-(4-((2-((R)-1-methylpyrrolidin-2-yl)-1H-pyrrolo[3,2-c]pyridin-6-yl)carbamoyl)phenyl)pent-1-yn-1-yl)benzamide], the “MLLT1% Degradation @ 0.01 μM” value is “A (Category A: A ≥ 75% degradation)”, the “MLLT1% Degradation @ 0.1 μM” value is “A (Category A: A ≥ 75% degradation)” and the “MLLT1% Degradation @ 1 μM” value is listed as “B (Category B: 50% ≤ B < 75% degradation)”.

With `CN1CCC[C@@H]1c1cc2cnc(NC(=O)c3ccc(CCCC#Cc4cc5c(cc4F)C(=O)N(C4CCC(=O)NC4=O)C5)cc3)cc2[nH]1` (stereo partly drawn) [Example 106, 4-(5-(2-(2,6-dioxopiperidin-3-yl)-6-fluoro-1-oxoisoindolin-5-yl)pent-4-yn-1-yl)-N-(2-((R)-1-methylpyrrolidin-2-yl)-1H-pyrrolo[3,2-c]pyridin-6-yl)benzamide], the “MLLT1% Degradation @ 0.01 μM” value is reported as “B (Category B: 50% ≤ B < 75% degradation)”, the “MLLT1% Degradation @ 0.1 μM” value is given as “A (Category A: A ≥ 75% degradation)” and the “MLLT1% Degradation @ 1 μM” value is on record as “A (Category A: A ≥ 75% degradation)”.

As to `CN1CCC[C@@H]1c1cc2cnc(NC(=O)N3CCC(CCC#Cc4cccc5c4CN(C4CCC(=O)NC4=O)C5=O)CC3)cc2[nH]1` (stereo partly drawn) [Example 1, 4-(4-(2-(2,6-dioxopiperidin-3-yl)-1-oxoisoindolin-4-yl)but-3-yn-1-yl)-N-(2-((R)-1-methylpyrrolidin-2-yl)-1H-pyrrolo[3,2-c]pyridin-6-yl)piperidine-1-carboxamide], the “MLLT1% Degradation @ 0.01 μM” value was “C (Category C: 25% ≤ C < 50% degradation)”, the “MLLT1% Degradation @ 0.1 μM” value is “C (Category C: 25% ≤ C < 50% degradation)” and the “MLLT1% Degradation @ 1 μM” value is on record as “C (Category C: 25% ≤ C < 50% degradation)”.

Consider `CN1CCC[C@@H]1c1cc2cnc(NC(=O)c3ccc(OC4CCN(CC5CCN(c6cccc7c6CN(C6CCC(=O)NC6=O)C7=O)CC5)CC4)cc3)cc2[nH]1` (stereo in doubt) [Example 123, 4-((1-((1-(2-((rel-R)-2,6-dioxopiperidin-3-yl)-1-oxoisoindolin-4-yl)piperidin-4-yl)methyl)piperidin-4-yl)oxy)-N-(2-((R)-1-methylpyrrolidin-2-yl)-1H-pyrrolo[3,2-c]pyridin-6-yl)benzamide], for which the “MLLT1% Degradation @ 0.01 μM” value was “A (Category A: A ≥ 75% degradation)”, the “MLLT1% Degradation @ 0.1 μM” value was “A (Category A: A ≥ 75% degradation)” and the “MLLT1% Degradation @ 1 μM” value is reported as “A (Category A: A ≥ 75% degradation)”.

Turning to `CN1CCC[C@@H]1c1cc2cnc(NC(=O)c3ccc(CCCC#Cc4cccc(N5CCC(=O)NC5=O)n4)cc3)cc2[nH]1` [Example 63, (R)-4-(5-(6-(2,4-dioxotetrahydropyrimidin-1(2H)-yl)pyridin-2-yl)pent-4-yn-1-yl)-N-(2-(1-methylpyrrolidin-2-yl)-1H-pyrrolo[3,2-c]pyridin-6-yl)benzamide], the “MLLT1% Degradation @ 0.01 μM” value was “D (Category D: D < 25% degradation)”, the “MLLT1% Degradation @ 0.1 μM” value is “D (Category D: D < 25% degradation)” and the “MLLT1% Degradation @ 1 μM” value is reported as “C (Category C: 25% ≤ C < 50% degradation)”.

As to `CN1CCC[C@@H]1c1cc2cnc(NC(=O)c3cc(F)c(CCCC#Cc4cccc5c4CN(C4CCC(=O)NC4=O)C5=O)c(F)c3)cc2[nH]1` (stereo partly drawn) [Example 84, 4-(5-(2-(2,6-dioxopiperidin-3-yl)-1-oxoisoindolin-4-yl)pent-4-yn-1-yl)-3,5-difluoro-N-(2-((R)-1-methylpyrrolidin-2-yl)-1H-pyrrolo[3,2-c]pyridin-6-yl)benzamide], the “MLLT1% Degradation @ 0.01 μM” value is on record as “B (Category B: 50% ≤ B < 75% degradation)”, the “MLLT1% Degradation @ 0.1 μM” value was “A (Category A: A ≥ 75% degradation)” and the “MLLT1% Degradation @ 1 μM” value is reported as “A (Category A: A ≥ 75% degradation)”.

`CN1CCC[C@@H]1c1[nH]c2cc(NC(=O)c3ccc(OCCC4CCN(c5cccc6c5CN(C5CCC(=O)NC5=O)C6=O)CC4)c(F)c3)ncc2c1Cl` (stereo partly drawn) [Example 229, N-(3-chloro-2-((R)-1-methylpyrrolidin-2-yl)-1H-pyrrolo[3,2-c]pyridin-6-yl)-4-(2-(1-(2-(2,6-dioxopiperidin-3-yl)-1-oxoisoindolin-4-yl)piperidin-4-yl)ethoxy)-3-fluorobenzamide]: the “MLLT1% Degradation @ 0.01 μM” value is recorded as “A (Category A: A ≥ 75% degradation)”, the “MLLT1% Degradation @ 0.1 μM” value is on record as “A (Category A: A ≥ 75% degradation)” and the “MLLT1% Degradation @ 1 μM” value is reported as “A (Category A: A ≥ 75% degradation)”.

Take `CN1CCC[C@@H]1c1cc2cnc(NC(=O)c3ccc(OCCN4CCC5(CC4)CCN(c4ccc6c(c4)C(=O)N(C4CCC(=O)NC4=O)C6=O)CC5)cc3)cc2[nH]1` (stereo partly drawn) [Example 166, 4-(2-(9-(2-(2,6-dioxopiperidin-3-yl)-1,3-dioxoisoindolin-5-yl)-3,9-diazaspiro[5.5]undecan-3-yl)ethoxy)-N-(2-((R)-1-methylpyrrolidin-2-yl)-1H-pyrrolo[3,2-c]pyridin-6-yl)benzamide]: the “MLLT1% Degradation @ 0.01 μM” value was “C (Category C: 25% ≤ C < 50% degradation)”, the “MLLT1% Degradation @ 0.1 μM” value is “A (Category A: A ≥ 75% degradation)” and the “MLLT1% Degradation @ 1 μM” value was “A (Category A: A ≥ 75% degradation)”.
